# Data from ChEMBL document CHEMBL2010711, “Synthesis and comparative evaluation of 4-oxa- and 4-aza-podophyllotoxins as antiproliferative microtubule destabilizing agents” (Bioorg Med Chem Lett, 2012).
# Activity calls are given as the source filed them.
# Experiments:
# Paracentrotus lividus [1] = assay: Antimitotic activity against Paracentrotus lividus embryo assessed as concentration required to cause 100% cleavage alteration after 2.5 to 6 hrs; type: functional
# Paracentrotus lividus [2] = assay: Antimitotic activity against Paracentrotus lividus embryo assessed as concentration required to cause 100% cleavage arrest after 2.5 to 6 hrs; type: functional
# Paracentrotus lividus [3] = assay: Microtubule destabilizing activity in Paracentrotus lividus embryo assessed as embryo spinning at 2 fold less effective threshold concentration after 15 mins to 20 hrs; type: functional, organism-based
# Paracentrotus lividus [4] = assay: Antimitotic activity against Paracentrotus lividus embryo assessed as cleavage alteration at 2 fold less effective threshold concentration after 2.5 to 6 hrs; type: functional, organism-based
# Paracentrotus lividus [5] = assay: Antimitotic activity against Paracentrotus lividus embryo assessed as cleavage arrest at 2 fold less effective threshold concentration after 2.5 to 6 hrs; type: functional, organism-based
# Paracentrotus lividus [6] = assay: Microtubule destabilizing activity in Paracentrotus lividus embryo assessed as concentration required to cause 100% embryo spinning after 15 mins to 20 hrs; type: functional
# NCI/ADR-RES = assay: Cytotoxicity against human NCI/ADR-RES cells after 48 hrs by trypan blue dye exclusion assay; type: functional
# MOLT-4 = assay: Cytotoxicity against human MOLT4 cells after 48 hrs by trypan blue dye exclusion assay; type: functional; conditions: MOLT-4, 48 h
# OVCAR-5 = assay: Cytotoxicity against human OVCAR5 cells after 48 hrs by trypan blue dye exclusion assay; type: functional; conditions: OVCAR-5, 48 h
# OVCAR-8 = assay: Cytotoxicity against human OVCAR8 cells after 48 hrs by trypan blue dye exclusion assay; type: functional; conditions: OVCAR-8, 48 h
# SF-295 = assay: Cytotoxicity against human SF295 cells after 48 hrs by trypan blue dye exclusion assay; type: functional; conditions: SF-295, 48 h
# COLO 205 = assay: Cytotoxicity against human COLO205 cells after 48 hrs by trypan blue dye exclusion assay; type: functional; conditions: COLO 205, 48 h
# HOP-92 = assay: Cytotoxicity against human HOP92 cells after 48 hrs by trypan blue dye exclusion assay; type: functional; conditions: HOP-92, 48 h
# NCI-H522 = assay: Cytotoxicity against human NCI-H522 cells after 48 hrs by trypan blue dye exclusion assay; type: functional; conditions: NCI-H522, 48 h
# NCI-H226 = assay: Cytotoxicity against human NCI-H226 cells after 48 hrs by trypan blue dye exclusion assay; type: functional; conditions: NCI-H226, 48 h
# SN12C = assay: Cytotoxicity against human SN12C cells after 48 hrs by trypan blue dye exclusion assay; type: functional
# MDA-MB-468 = assay: Cytotoxicity against human MDA-MB-468 cells after 48 hrs by trypan blue dye exclusion assay; type: functional; conditions: MDA-MB-468, 48 h
# UACC-62 = assay: Cytotoxicity against human UACC62 cells after 48 hrs by trypan blue dye exclusion assay; type: functional; conditions: UACC-62, 48 h
# SW-620 = assay: Cytotoxicity against human SW620 cells after 48 hrs by trypan blue dye exclusion assay; type: functional; conditions: SW-620, 48 h
# PC-3 = assay: Cytotoxicity against human PC3 cells after 48 hrs by trypan blue dye exclusion assay; type: functional; conditions: PC-3, 48 h
# HT-29 = assay: Cytotoxicity against human HT-29 cells after 48 hrs by trypan blue dye exclusion assay; type: functional; conditions: HT-29, 48 h
# SNB-19 = assay: Cytotoxicity against human SNB19 cells after 48 hrs by trypan blue dye exclusion assay; type: functional; conditions: SNB-19, 48 h
# MCF7 = assay: Cytotoxicity against human MCF7 cells after 48 hrs by trypan blue dye exclusion assay; type: functional; conditions: MCF7, 48 h
# NCI-H322M = assay: Cytotoxicity against human NCI-H322M cells after 48 hrs by trypan blue dye exclusion assay; type: functional
# SF-268 = assay: Cytotoxicity against human SF268 cells after 48 hrs by trypan blue dye exclusion assay; type: functional; conditions: SF-268, 48 h
# SK-MEL-2 = assay: Cytotoxicity against human SK-MEL-2 cells after 48 hrs by trypan blue dye exclusion assay; type: functional; conditions: SK-MEL-2, 48 h
# M14 = assay: Cytotoxicity against human M14 cells after 48 hrs by trypan blue dye exclusion assay; type: functional; conditions: M14, 48 h
# OVCAR-3 = assay: Cytotoxicity against human OVCAR3 cells after 48 hrs by trypan blue dye exclusion assay; type: functional; conditions: OVCAR-3, 48 h
# TK-10 = assay: Cytotoxicity against human TK10 cells after 48 hrs by trypan blue dye exclusion assay; type: functional; conditions: TK-10, 48 h
# BT-549 = assay: Cytotoxicity against human BT549 cells after 48 hrs by trypan blue dye exclusion assay; type: functional; conditions: BT-549, 48 h
# DU-145 = assay: Cytotoxicity against human DU145 cells after 48 hrs by trypan blue dye exclusion assay; type: functional; conditions: DU-145, 48 h
# HL-60(TB) = assay: Cytotoxicity against human HL-60(TB) cells after 48 hrs by trypan blue dye exclusion assay; type: functional; conditions: HL-60, 48 h
# [7] = Cytotoxicity against human Hs 578T cells after 48 hrs by trypan blue dye exclusion assay; type: functional
# SF-539 = assay: Cytotoxicity against human SF539 cells after 48 hrs by trypan blue dye exclusion assay; type: functional; conditions: SF-539, 48 h
# HCT-116 = assay: Cytotoxicity against human HCT116 cells after 48 hrs by trypan blue dye exclusion assay; type: functional; conditions: HCT-116, 48 h
# SK-MEL-28 = assay: Cytotoxicity against human SK-MEL-28 cells after 48 hrs by trypan blue dye exclusion assay; type: functional; conditions: SK-MEL-28, 48 h
# SR = assay: Cytotoxicity against human SR cells after 48 hrs by trypan blue dye exclusion assay; type: functional
# KM12 = assay: Cytotoxicity against human KM12 cells after 48 hrs by trypan blue dye exclusion assay; type: functional; conditions: KM12, 48 h
# CCRF-CEM = assay: Cytotoxicity against human CCRF-CEM cells after 48 hrs by trypan blue dye exclusion assay; type: functional
# MDA-MB-231 = assay: Cytotoxicity against human MDA-MB-231 cells after 48 hrs by trypan blue dye exclusion assay; type: functional; conditions: MDA-MB-231, 48 h
# MDA-MB-435 = assay: Cytotoxicity against human MDA-MB-435 cells after 48 hrs by trypan blue dye exclusion assay; type: functional; conditions: MDA-MB-435, 48 h
# NCI-H460 = assay: Cytotoxicity against human NCI-H460 cells after 48 hrs by trypan blue dye exclusion assay; type: functional; conditions: NCI-H460, 48 h
# SNB-75 = assay: Cytotoxicity against human SNB75 cells after 48 hrs by trypan blue dye exclusion assay; type: functional; conditions: SNB-75, 48 h
# CAKI-1 = assay: Cytotoxicity against human CAKI-1 cells after 48 hrs by trypan blue dye exclusion assay; type: functional; conditions: CAKI-1, 48 h
# EKVX = assay: Cytotoxicity against human EKVX cells after 48 hrs by trypan blue dye exclusion assay; type: functional
# LOX IMVI = assay: Cytotoxicity against human LOXIMVI cells after 48 hrs by trypan blue dye exclusion assay; type: functional
# ACHN = assay: Cytotoxicity against human ACHN cells after 48 hrs by trypan blue dye exclusion assay; type: functional
# 786-0 = assay: Cytotoxicity against human 786-0 cells after 48 hrs by trypan blue dye exclusion assay; type: functional; conditions: 786-0, 48 h
# NCI-H23 = assay: Cytotoxicity against human NCI-H23 cells after 48 hrs by trypan blue dye exclusion assay; type: functional; conditions: NCI-H23, 48 h
# A498 = assay: Cytotoxicity against human A498 cells after 48 hrs by trypan blue dye exclusion assay; type: functional; conditions: A498, 48 h
# RPMI-8226 = assay: Cytotoxicity against human RPMI8226 cells after 48 hrs by trypan blue dye exclusion assay; type: functional; conditions: RPMI-8226, 48 h
# U-251 = assay: Cytotoxicity against human U251 cells after 48 hrs by trypan blue dye exclusion assay; type: functional; conditions: U-251, 48 h
# UO-31 = assay: Cytotoxicity against human UO31 cells after 48 hrs by trypan blue dye exclusion assay; type: functional; conditions: UO-31, 48 h
# SK-OV-3 = assay: Cytotoxicity against human SKOV3 cells after 48 hrs by trypan blue dye exclusion assay; type: functional; conditions: SK-OV-3, 48 h
# OVCAR-4 = assay: Cytotoxicity against human OVCAR4 cells after 48 hrs by trypan blue dye exclusion assay; type: functional; conditions: OVCAR-4, 48 h
# A549 = assay: Cytotoxicity against human A549 cells after 48 hrs by trypan blue dye exclusion assay; type: functional; conditions: A549, 48 h
# RXF 393 = assay: Cytotoxicity against human RXF393 cells after 48 hrs by trypan blue dye exclusion assay; type: functional; conditions: RXF 393, 48 h
# HCC 2998 = assay: Cytotoxicity against human HCC2998 cells after 48 hrs by trypan blue dye exclusion assay; type: functional; conditions: HCC 2998, 48 h
# HCT-15 = assay: Cytotoxicity against human HCT15 cells after 48 hrs by trypan blue dye exclusion assay; type: functional; conditions: HCT-15, 48 h
# IGROV-1 = assay: Cytotoxicity against human IGROV1 cells after 48 hrs by trypan blue dye exclusion assay; type: functional; conditions: IGROV-1, 48 h
# SK-MEL-5 = assay: Cytotoxicity against human SK-MEL-5 cells after 48 hrs by trypan blue dye exclusion assay; type: functional; conditions: SK-MEL-5, 48 h
compound,measurement,setting,value
COc1ccc2c(c1)C(c1cc(OC)c(OC)c(OC)c1)C1=C(COC1=O)O2 (centres undefined),EC,Paracentrotus lividus [1],100 nM
same,EC,Paracentrotus lividus [2],2000 nM
same,Activity,Paracentrotus lividus [3],inactive
same,Activity,Paracentrotus lividus [4],inactive
same,Activity,Paracentrotus lividus [5],inactive
same,EC,Paracentrotus lividus [6],5000 nM
COc1ccc2c(c1)C(c1cc(OC)c3c(c1)OCO3)C1=C(COC1=O)O2 (centres undefined),EC,Paracentrotus lividus [1],50 nM
same,EC,Paracentrotus lividus [2],200 nM
same,Activity,Paracentrotus lividus [3],inactive
same,Activity,Paracentrotus lividus [4],inactive
same,Activity,Paracentrotus lividus [5],inactive
same,EC,Paracentrotus lividus [6],2000 nM
COc1ccc2c(c1)OC1=C(C(=O)OC1)C2c1cc(OC)c2c(c1)OCCO2 (centres undefined),GI50,NCI/ADR-RES,23.5 nM
same,GI50,MOLT-4,81.7 nM
same,GI50,OVCAR-5,126 nM
same,GI50,OVCAR-8,49.5 nM
same,GI50,SF-295,31.5 nM
same,GI50,COLO 205,30.7 nM
same,GI50,HOP-92,41.6 nM
same,GI50,NCI-H522,37.3 nM
same,GI50,NCI-H226,71.2 nM
same,GI50,SN12C,54 nM
same,GI50,MDA-MB-468,23.1 nM
same,EC,Paracentrotus lividus [1],10 nM
same,GI50,UACC-62,39.2 nM
same,GI50,SW-620,36.2 nM
same,GI50,PC-3,46.9 nM
same,GI50,HT-29,38.4 nM
same,GI50,SNB-19,50.4 nM
same,EC,Paracentrotus lividus [2],50 nM
same,GI50,MCF7,32.9 nM
same,GI50,NCI-H322M,47.4 nM
same,Activity,Paracentrotus lividus [3],inactive
same,GI50,SF-268,85.1 nM
same,GI50,SK-MEL-2,48.3 nM
same,Activity,Paracentrotus lividus [4],inactive
same,GI50,M14,52.2 nM
same,Activity,Paracentrotus lividus [5],inactive
same,GI50,OVCAR-3,26.2 nM
same,GI50,TK-10,36500 nM
same,GI50,BT-549,131 nM
same,GI50,DU-145,51.9 nM
same,GI50,HL-60(TB),23.2 nM
same,GI50,[7],30.8 nM
same,GI50,SF-539,29.3 nM
same,GI50,HCT-116,48.3 nM
same,GI50,SK-MEL-28,51.7 nM
same,GI50,SR,32.8 nM
same,GI50,KM12,42.7 nM
same,GI50,CCRF-CEM,31.3 nM
same,GI50,MDA-MB-231,110 nM
same,GI50,MDA-MB-435,19.7 nM
same,GI50,NCI-H460,> 100000 nM
same,GI50,SNB-75,33.7 nM
same,GI50,CAKI-1,36.3 nM
same,GI50,EKVX,68.2 nM
same,GI50,LOX IMVI,48.5 nM
same,GI50,ACHN,171 nM
same,EC,Paracentrotus lividus [6],500 nM
same,GI50,786-0,61.4 nM
same,GI50,NCI-H23,38.2 nM
same,GI50,A498,23.1 nM
same,GI50,RPMI-8226,41 nM
same,GI50,U-251,85.1 nM
same,GI50,UO-31,71.3 nM
same,GI50,SK-OV-3,33.3 nM
same,GI50,OVCAR-4,236 nM
same,GI50,A549,52.3 nM
same,GI50,RXF 393,18.7 nM
same,GI50,HCC 2998,75.7 nM
same,GI50,HCT-15,47.5 nM
same,GI50,IGROV-1,86 nM
same,GI50,SK-MEL-5,32.9 nM
COc1ccc2c(c1)OC1=C(C(=O)OC1)C2c1cc(OC)c2c(c1OC)OCO2 (centres undefined),EC,Paracentrotus lividus [1],100 nM
same,EC,Paracentrotus lividus [2],500 nM
same,Activity,Paracentrotus lividus [3],inactive
same,Activity,Paracentrotus lividus [4],inactive
same,Activity,Paracentrotus lividus [5],inactive
same,EC,Paracentrotus lividus [6],4000 nM
